Results published in publication PMC3731216, “Origin and Functional Diversification of an Amphibian Defense Peptide Arsenal” (PLoS Genetics, 2013).
In brackets after ≈: the same amount, converted by molar mass. Where a SMILES comes first, the peptide text is derived from it.

Legend:
[1] = tested on: Pseudomonas aeruginosa (ATCC 15692); assay: MIC assay in liquid medium (twofold dilutions) against P. aeruginosa; format: cell-based; details: lowest concentration in twofold dilutions with no growth; 5×10^5 CFU/ml, Müller-Hinton broth, 37°C, 18 hours, read by eye; duplicate or triplicate, min–max if variable
Protocol: (§1) Seventeen predicted and recovered peptides were de novo synthesized using solid-phase technology by CASLO Laboratory ApS (Lyngby, Denmark) and delivered as HPLC-purified (>95%) trifluoracetate (TFA) salts. The peptide salts were stored as 5.12 mM stock solutions in 0.01% (V/V) acetic acid/0.2% (m/V) BSA. Peptides were tested against Escherichia coli (ATCC 25922) and Pseudomonas aeruginosa (ATCC 15692), Staphylococcus aureus (ATCC 25923), Micrococcus luteus, Saccharomyces cerevisiae, a protozoan parasite (Trypanosoma brucei brucei), mouse (Mus musculus) red blood cells and mouse spleen tissue cultures (containing 50–60% B-cells, ∼25–30% T-cells, and 5% myeloid cells). All assays were performed in duplicate or triplicate.
(§2) Activity against the bacteria and fungus was measured by assessing the lowest peptide concentration in a series of twofold dilutions at which no growth was detected (known as the minimum inhibitory concentration, MIC). Bacterial and yeast cultures (5×10^5 colony forming units/ml) were prepared in Müller-Hinton (MH) broth and Luria-Bertani (LB) broth respectively and transferred to serial dilutions of peptides ranging from 512 or 256 µM down to 1 or 0.5 µM in 96-well polypropylene plates. After incubation at 37°C (bacteria) or 30°C (S. cerevisiae) for 18 hours, growth of the cultures was checked by eye. In addition to MIC, we determined minimum microbicidal concentrations (MMC) by inoculating samples of the MIC assays on agar plates lacking peptides and checking for overnight growth. In all cases, MIC and MMC were identical.

[2] = tested on: T-lymphocytes (naive C57Black/6 splenocytes); assay: Inhibition of Concanavalin A-induced T-cell proliferation in spleen cell cultures; format: cell-based, Mus musculus; details: lowest concentration causing at least 50% inhibition of Concanavalin A-induced T-cell proliferation; 2×10^5 splenocytes, 24 h + 18 h [3H]thymidine, 37°C; min–max if variable
Protocol: as §1
Activity against T-lymphocytes was assessed as the lowest peptide concentration in a series of twofold dilutions causing at least 50% inhibition of Concanavalin A-induced T-cell proliferation (IC50). Solutions containin 2×10^5 naive C57Black/6 splenocytes in the presence of 2.5 µg Concanavalin A were added to polypropylene 96-well plates containing the serial peptide dilutions to obtain total volumes of 100 µl. After incubation for 24 hours at 37°C in a humidified atmosphere, the cells were pulsed with [^3H]thymidine and incubated for an additional 18 hours. The amount of [^3H]thymidine incorporation was assessed by a β-counter as a measure of cell proliferation and the percentage of proliferation inhibition for each peptide concentration was calculated as 100×(1−(Tobs/T100%)), where Tobs is the [^3H]thymidine level measured for the peptide concentration, and T100% is the [^3H]thymidine level measured for Concanavalin-A-induced cell proliferation in the absence of peptide (representing 100% proliferation).

[3] = tested on: Escherichia coli (ATCC 25922); assay: MIC assay in liquid medium (twofold dilutions) against E. coli; format: cell-based; details: lowest concentration in twofold dilutions with no growth; 5×10^5 CFU/ml, Müller-Hinton broth, 37°C, 18 hours, read by eye; duplicate or triplicate, min–max if variable
Protocol: as §1, §2

Micrococcus luteus = assay: MIC assay in liquid medium (twofold dilutions) against M. luteus; format: cell-based; details: lowest concentration in twofold dilutions with no growth; 5×10^5 CFU/ml, Müller-Hinton broth, 37°C, 18 hours, read by eye; duplicate or triplicate, min–max if variable
Protocol: as §1, §2

mouse red blood cells = assay: Hemolysis of mouse red blood cells (HC50); format: cell-based; details: lowest concentration causing at least 50% hemolysis; mouse blood diluted 1/100 in RPMI, 37°C, 30 minutes, OD 550 nm; 100% = 1% Tween-20
Protocol: as §1
Activity against mouse red blood cells was examined by assessing the lowest peptide concentration in a series of twofold dilutions causing at least 50% hemolysis (HC50). Briefly, heparinized blood was obtained by cardiac puncture of mice euthanized via CO2. The blood was diluted 1/100 in RPMI and added to polypropylene 96-well plates containing the serial peptide dilutions to obtain total volumes of 100 µl. The plates were incubated at 37°C in a humidified atmosphere for 30 minutes and centrifuged at 1400 rpm for 2 minutes to pellet intact red blood cells allowing visual observation of hemolysis. Supernatants were subsequently transferred to 96-well flat-bottom plates to allow spectrophotometry using an ELISA reader (OD measured at 550 nm). The percentage of hemolyis for each peptide concentration was calculated as 100×(ODobs−OD0%)/(OD100%−OD0%), where ODobs is the OD measured for the peptide concentration, OD0% is the average OD in the absence of peptides (0% hemolysis), and OD100% is the average OD in the presence of 1% Tween-20 (100% hemolysis).

[4] = tested on: Staphylococcus aureus (ATCC 25923); assay: MIC assay in liquid medium (twofold dilutions) against S. aureus; format: cell-based; details: lowest concentration in twofold dilutions with no growth; 5×10^5 CFU/ml, Müller-Hinton broth, 37°C, 18 hours, read by eye; duplicate or triplicate, min–max if variable
Protocol: as §1, §2

Saccharomyces cerevisiae = assay: MIC assay in liquid medium (twofold dilutions) against S. cerevisiae; format: cell-based; details: lowest concentration in twofold dilutions with no growth; 5×10^5 CFU/ml, Luria-Bertani broth, 30°C, 18 hours, read by eye; duplicate or triplicate, min–max if variable
Protocol: as §1, §2

CC[C@H](C)[C@H](NC(=O)[C@H](CC(C)C)NC(=O)[C@H](CCCCN)NC(=O)[C@H](CO)NC(=O)[C@H](C)NC(=O)CNC(=O)[C@H](CCCCN)NC(=O)[C@H](CC(C)C)NC(=O)[C@H](C)NC(=O)[C@H](CCSC)NC(=O)[C@H](CCCCN)NC(=O)[C@H](C)NC(=O)[C@H](Cc1ccccc1)NC(=O)[C@@H](NC(=O)CNC(=O)[C@H](Cc1ccccc1)NC(=O)[C@H](CC(C)C)NC(=O)[C@@H](N)CO)[C@@H](C)O)C(=O)N1CCC[C@H]1C(=O)N[C@@H](Cc1c[nH]cn1)C(=O)N[C@@H](CC(C)C)C(=O)N[C@@H](CC(C)C)C(=O)N1CCC[C@H]1C(=O)N[C@@H](CO)C(=O)N[C@@H](CCCNC(=N)N)C(=O)N[C@@H](CCC(N)=O)C(=O)N[C@@H](CCC(N)=O)C(=O)O [CPF-St4] (H-SLFGTFAKMALKGASKLIPHLLPSRQQ-OH)
MIC P. aeruginosa [1]: 4 to 8 µM | IC50 [2]: 2 µM | MIC E. coli [3]: 2 to 4 µM | MIC M. luteus (Micrococcus luteus): 0,5 µM | HC50 Erythrocytes (mouse red blood cells): 64 µM | MIC S. aureus [4]: 1 µM | MIC S. cerevisiae (Saccharomyces cerevisiae): 16 µM

CC[C@H](C)[C@H](NC(=O)[C@H](CC(C)C)NC(=O)[C@H](CCCCN)NC(=O)[C@H](CO)NC(=O)[C@H](C)NC(=O)CNC(=O)[C@H](CCCCN)NC(=O)[C@H](CC(C)C)NC(=O)[C@H](C)NC(=O)[C@H](C)NC(=O)[C@H](CCCCN)NC(=O)[C@H](C)NC(=O)[C@H](CC(C)C)NC(=O)[C@H](CC(C)C)NC(=O)CNC(=O)[C@H](Cc1ccccc1)NC(=O)[C@@H](NC(=O)CN)C(C)C)C(=O)N1CCC[C@H]1C(=O)N[C@@H](Cc1c[nH]cn1)C(=O)N[C@@H](CC(C)C)C(=O)N[C@@H](CC(C)C)C(=O)N1CCC[C@H]1C(=O)N[C@@H](CO)C(=O)N[C@@H](CCCNC(=N)N)C(=O)N[C@@H](CCC(N)=O)C(=O)N[C@@H](CCC(N)=O)C(=O)O [CPF-St5] (H-GVFGLLAKAALKGASKLIPHLLPSRQQ-OH)
MIC P. aeruginosa [1]: 4 to 8 µM | IC50 [2]: 8 µM | MIC E. coli [3]: 1 µM (≈ 2.81 µg/mL) | MIC M. luteus (Micrococcus luteus): 0,5 µM | HC50 Erythrocytes (mouse red blood cells): 64 µM | MIC S. aureus [4]: 1 µM (≈ 2.81 µg/mL) | MIC S. cerevisiae (Saccharomyces cerevisiae): 16 µM (≈ 45 µg/mL)

CC[C@H](C)[C@H](NC(=O)[C@@H](N)Cc1ccccc1)C(=O)NCC(=O)N[C@@H](C)C(=O)N[C@@H](CC(C)C)C(=O)N[C@@H](CC(C)C)C(=O)N[C@@H](CCCNC(=N)N)C(=O)N1CCC[C@H]1C(=O)N[C@@H](C)C(=O)N[C@@H](CC(C)C)C(=O)N[C@@H](CCCCN)C(=O)N[C@@H](CC(C)C)C(=O)N[C@@H](CC(C)C)C(=O)N[C@@H](C)C(=O)NCC(=O)N[C@@H](CCCCN)C(=O)O [PFQa-St2] (H-FIGALLRPALKLLAGK-OH)
MIC P. aeruginosa [1]: 256 µM (≈ 430 µg/mL) | IC50 [2]: 128 µM | MIC E. coli [3]: 32 µM (≈ 53.8 µg/mL) | MIC M. luteus (Micrococcus luteus): 4 µM (≈ 6.72 µg/mL) | HC50 Erythrocytes (mouse red blood cells): 256 µM | MIC S. aureus [4]: 16 µM (≈ 26.9 µg/mL) | MIC S. cerevisiae (Saccharomyces cerevisiae): 128 µM (≈ 215 µg/mL)

CC[C@H](C)[C@H](NC(=O)[C@H](C)NC(=O)[C@H](CCC(=O)O)NC(=O)[C@H](CC(C)C)NC(=O)CNC(=O)CNC(=O)[C@H](CCCCN)NC(=O)[C@H](C)NC(=O)[C@H](Cc1ccccc1)NC(=O)[C@H](CCCCN)NC(=O)[C@H](CCCCN)NC(=O)[C@H](CC(C)C)NC(=O)CNC(=O)CNC(=O)[C@H](CC(C)C)NC(=O)[C@@H](NC(=O)[C@@H](NC(=O)[C@H](CO)NC(=O)[C@H](Cc1c[nH]c2ccccc12)NC(=O)[C@@H](NC(=O)CN)C(C)C)[C@@H](C)O)C(C)C)C(=O)N[C@H](C(=O)N[C@@H](CC(N)=O)C(=O)N1CCC[C@H]1C(=O)N[C@@H](CCCCN)C(=O)O)C(C)C [XPF-St1] (H-GVWSTVLGGLKKFAKGGLEAIVNPK-OH)
MIC P. aeruginosa [1]: 32 µM (≈ 82.2 µg/mL) | IC50 [2]: 16 µM | MIC E. coli [3]: 4 µM (≈ 10.3 µg/mL) | MIC M. luteus (Micrococcus luteus): 0,5 µM | HC50 Erythrocytes (mouse red blood cells): 128 µM | MIC S. aureus [4]: 32 to 64 µM | MIC S. cerevisiae (Saccharomyces cerevisiae): 32 µM (≈ 82.2 µg/mL)

CC[C@H](C)[C@H](NC(=O)[C@H](CO)NC(=O)[C@H](CO)NC(=O)[C@H](C)NC(=O)[C@H](Cc1c[nH]c2ccccc12)NC(=O)CN)C(=O)NCC(=O)N[C@@H](CO)C(=O)N[C@H](C(=O)N[C@@H](CC(C)C)C(=O)NCC(=O)N[C@@H](CCCCN)C(=O)N[C@@H](Cc1ccccc1)C(=O)N[C@@H](C)C(=O)N[C@@H](CCCCN)C(=O)NCC(=O)NCC(=O)N[C@@H](C)C(=O)N[C@@H](CCC(N)=O)C(=O)N[C@@H](C)C(=O)N[C@@H](Cc1ccccc1)C(=O)N[C@@H](CC(C)C)C(=O)N[C@@H](CCC(N)=O)C(=O)N1CCC[C@H]1C(=O)N[C@@H](CCCCN)C(=O)O)[C@@H](C)CC [XPF-St4] (H-GWASSIGSILGKFAKGGAQAFLQPK-OH)
MIC P. aeruginosa [1]: 128 µM (≈ 323 µg/mL) | IC50 [2]: 64 µM | MIC E. coli [3]: 32 µM (≈ 80.6 µg/mL) | MIC M. luteus (Micrococcus luteus): 0,5 µM | HC50 Erythrocytes (mouse red blood cells): 256 µM | MIC S. aureus [4]: >256 µM | MIC S. cerevisiae (Saccharomyces cerevisiae): 64 µM (≈ 161 µg/mL)

CC[C@H](C)[C@H](NC(=O)[C@@H]1CCCN1C(=O)[C@H](CCC(N)=O)NC(=O)[C@@H](NC(=O)[C@H](CC(C)C)NC(=O)[C@H](CCCCN)NC(=O)[C@@H]1CCCN1C(=O)CNC(=O)[C@H](CC(C)C)NC(=O)[C@H](CCC(N)=O)NC(=O)[C@H](CCSC)NC(=O)[C@H](C)NC(=O)[C@H](CCCCN)NC(=O)[C@H](CCCNC(=N)N)NC(=O)[C@H](CC(C)C)NC(=O)[C@@H](NC(=O)[C@H](CCCCN)NC(=O)CNC(=O)[C@H](Cc1ccccc1)NC(=O)[C@@H](NC(=O)[C@@H]1CCCN1C(=O)[C@H](CC(C)C)NC(=O)[C@H](Cc1c[nH]c2ccccc12)NC(=O)CN)[C@@H](C)O)[C@@H](C)CC)[C@@H](C)CC)C(=O)O [XPF-St5] (H-GWLPTFGKILRKAMQLGPKLIQPI-OH)
MIC P. aeruginosa [1]: 8 to 16 µM | IC50 [2]: 8 to 16 µM | MIC E. coli [3]: 1 to 2 µM | MIC M. luteus (Micrococcus luteus): 1 µM (≈ 2.71 µg/mL) | HC50 Erythrocytes (mouse red blood cells): 128 µM | MIC S. aureus [4]: 16 µM (≈ 43.3 µg/mL) | MIC S. cerevisiae (Saccharomyces cerevisiae): 32 µM (≈ 86.6 µg/mL)

CC[C@H](C)[C@H](NC(=O)[C@H](C)NC(=O)[C@H](CC(=O)O)NC(=O)[C@H](CC(C)C)NC(=O)CNC(=O)CNC(=O)[C@H](CCCCN)NC(=O)[C@H](C)NC(=O)[C@H](Cc1ccccc1)NC(=O)[C@H](CCCCN)NC(=O)[C@H](CCCCN)NC(=O)[C@H](CC(C)C)NC(=O)CNC(=O)CNC(=O)[C@H](CC(C)C)NC(=O)[C@@H](NC(=O)[C@@H](NC(=O)[C@H](CO)NC(=O)[C@H](Cc1c[nH]c2ccccc12)NC(=O)[C@@H](NC(=O)CN)C(C)C)[C@@H](C)O)[C@@H](C)CC)C(=O)N[C@H](C(=O)N[C@@H](CC(N)=O)C(=O)N1CCC[C@H]1C(=O)N[C@@H](CCCCN)C(=O)O)C(C)C [XPF-St6] (H-GVWSTILGGLKKFAKGGLDAIVNPK-OH)
MIC P. aeruginosa [1]: 16 µM (≈ 41.1 µg/mL) | IC50 [2]: 8 µM | MIC E. coli [3]: 2 to 4 µM | MIC M. luteus (Micrococcus luteus): 0,5 µM | HC50 Erythrocytes (mouse red blood cells): 64 µM | MIC S. aureus [4]: 8 to 16 µM | MIC S. cerevisiae (Saccharomyces cerevisiae): 8 µM (≈ 20.6 µg/mL)
